Experimental data published in paper PMC3994669 (Cancer cell, 2014).
Like-named read-outs stand apart in the source and are kept apart here. *1 amine or outer side, *2 acyl side, *3 side chain or, on linkers, in order; H or OH if unused. Where a SMILES comes first, the peptide text is derived from it. Bridges are numbered along the chain shown (N, C = ends). Roman numbers before positions name the chains, in order. [ ]: non-standard residue; d: D form. Actinocin(9to1) = Cc1c2oc3c(C)ccc(C(=O)[*:1])c3nc-2c(C(=O)[*:2])c(N)c1=O; NMeV = CN[C@H](C(=O)O)C(C)C; Sar = CNCC(=O)O

How the values were obtained:
[1] = test system: Myc1 mouse G3 MB neurospheres; experiment: Dose-response proliferation assay; format: cell-based; details: for EC50: Mus musculus, 72 h, read-out: EC50 Myc1; for efficacy against Myc1: 72 hr treatment
Trp53-null neurospheres = experiment: Dose-response proliferation assay on control Trp53-null neurospheres; format: cell-based, mouse; details: for EC50: Mus musculus, 72 h, read-out: EC50 Trp53-null; for efficacy against Trp53-null: 72 hr treatment
HepG2 = experiment: Dose-response proliferation assay on HepG2 control cells; format: cell-based; details: Homo sapiens, HepG2, read-out: EC50 HepG2
BJ = experiment: Dose-response proliferation assay on BJ control fibroblasts; format: cell-based; details: Homo sapiens, read-out: EC50 BJ
H3K27me3 = H3K27me3 immunoblotting of Myc1 cell lysates; format: cell-based, mouse; details: Myc1, 72 hr; 0.5 μM decitabine, 40 nM pemetrexed
[2] = test system: four additional mouse G3 MB lines; experiment: Dose-response on four additional mouse G3 MB lines; format: cell-based; details: four independently derived mouse G3 MB lines
Myc1 neurospheres = experiment: In vitro wash-out experiments on Myc1; format: cell-based; details: Mus musculus
SHH MB-derived line = experiment: Dose-response on SHH MB-derived line; format: cell-based, mouse
[3] = test system: TB-12-5950 G3 MB PDX neurospheres; experiment: Cell viability of G3 MB PDX TB-12-5950 neurospheres; format: cell-based; details: Homo sapiens, 72 h, read-out: EC50 TB-12-5950
[4] = test system: OA-2012-1 G3 MB PDX neurospheres; experiment: Cell viability of G3 MB PDX OA-2012-1 neurospheres; format: cell-based; details: Homo sapiens, 72 h, read-out: EC50 OA-2012-1
[5] = test system: human neural stem cells H9; experiment: Cell viability of human neural stem cells H9; format: cell-based; details: H9, 72 h, read-out: EC50 H9 cells
[6] = format: in vivo; details: murine plasma, single IV injection pemetrexed 200 mg/kg, gemcitabine 60 mg/kg
Myc1 mouse G3 MB = experiment: Survival of mice with cortical Myc1 G3 MB implants; format: in vivo
mouse G3 MB tumor cells = experiment: Cell death; format: cell-based; details: for cell death by Annexin V staining: tumor cells in vitro
[7] = mouse, in vivo
Myc2 mouse G3 MB = experiment: Survival of mice with Myc2 G3 MB implants; details: treatment at days 4 and 11; vehicle 11 days
[8] = read-out: EC50 wash-out, 1 hr drug exposure, read 72 hr after
[9] = read-out: EC50 wash-out, 10 hr drug exposure, read 72 hr after
[10] = read-out: EC50 wash-out, 24 hr drug exposure, read 72 hr after

Row | EC50 (HepG2) | Compound | EC50 [1] | EC50 (Trp53-null neurospheres) | further results
1 | 11000 nM | COc1cc(NS(C)(=O)=O)ccc1Nc1c2ccccc2nc2ccccc12 [Amsacrine] | 160 nM | 550 nM | EC50 (BJ): 13000 nM
2 |  | N=c1ccn2c(n1)O[C@H]1[C@H](O)[C@@H](CO)O[C@H]12 [Ancitabine] | 31 nM | 550 nM | 
3 | 26 nM | CC(C)C[C@H](NC(=O)[C@H](Cc1ccccc1)NC(=O)c1cnccn1)B(O)O [Bortezomib] | 6.3 nM | 2.7 nM | EC50 (BJ): 23 nM
4 | 920 nM | COCc1c(C(C)C)nc(C(C)C)c(/C=C/[C@@H](O)C[C@@H](O)CC(=O)O)c1-c1ccc(F)cc1 [Cerivastatin] | 770 nM | 2500 nM | 
5 | 3300 nM | Nc1nc(Cl)nc2c1ncn2[C@H]1C[C@H](O)[C@@H](CO)O1 [Cladrabine] | 4.3 nM | 250 nM | EC50 (BJ): 1400 nM
6 |  | Nc1nc(Cl)nc2c1ncn2[C@@H]1O[C@H](CO)[C@@H](O)[C@@H]1F [Clofarabine] | 150 nM | 340 nM | 
7 |  | CC1(C)N=C(N)N=C(N)N1c1ccc(Cl)cc1 [Cycloguanil] | 110 nM | 180 nM | 
8 | 78 nM | Nc1ccn([C@@H]2O[C@H](CO)[C@@H](O)[C@@H]2O)c(=O)n1 [Cytarabine] | 83 nM | 200 nM | 
9 |  | Nc1ncn([C@H]2C[C@H](O)[C@@H](CO)O2)c(=O)n1 [Decitabine] | 1300 nM | 32 nM | efficacy against Myc1 [1]: 100%; efficacy against Trp53-null (Trp53-null neurospheres): ≤ 35%; H3K27me3 levels (H3K27me3): significantly decreased; potency and efficacy compared to Myc1 [2]: comparable potency and efficacy; EC50 (Myc1 neurospheres; [8]): ~2400 nM; EC50 (Myc1 neurospheres; [9]): ~920 nM; EC50 (Myc1 neurospheres; [10]): ~500 nM
10 | 580 nM | COc1cccc2c1C(=O)c1c(O)c3c(c(O)c1C2=O)C[C@@](O)(C(=O)CO)C[C@@H]3O[C@H]1C[C@H](N)[C@H](O)[C@H](C)O1 [Doxorubicin] | 28 nM | 110 nM | EC50 (BJ): 140 nM
11 |  | COc1cc([C@@H]2c3cc4c(cc3[C@@H](O[C@@H]3O[C@@H]5CO[C@@H](C)O[C@H]5[C@H](O)[C@H]3O)[C@H]3COC(=O)[C@H]23)OCO4)cc(OC)c1O [Etoposide] | 240 nM | 46 nM | 
12 |  | O=c1[nH]c(=O)n([C@H]2C[C@H](O)[C@@H](CO)O2)cc1F [Floxuridine] | 1.6 nM | 0.1 nM | 
13 |  | O=c1[nH]cc(F)c(=O)[nH]1 [Fluorouracil] | 360 nM | 220 nM | 
14 |  | CC(C)n1c(/C=C/C(O)CC(O)CC(=O)O)c(-c2ccc(F)cc2)c2ccccc21 (centres unmarked) [Fluvastatin] | 4500 nM |  | 
15 |  | Nc1ccn([C@@H]2O[C@H](CO)[C@@H](O)C2(F)F)c(=O)n1 [Gemcitabine] | 2.1 nM | 0.32 nM | efficacy against Myc1 [1]: 100%; efficacy against Trp53-null (Trp53-null neurospheres): ≤ 63%; potency and efficacy compared to Myc1 [2]: comparable potency and efficacy; fold less sensitive compared to Myc1 (SHH MB-derived line): greater than 5 fold; EC50 (Myc1 neurospheres; [8]): 44 nM; EC50 (Myc1 neurospheres; [9]): 13 nM; EC50 (Myc1 neurospheres; [10]): 3.8 nM; EC50 [3]: 5.1 nM; EC50 [4]: 11 nM; EC50 [5]: 1.5 nM; clearance relative to previously published reports [6]: around 2 fold; increase in median survival (Myc1 mouse G3 MB; two doses of gemcitabine 60 mg/kg at days 2 and 9, vs vehicle): 11 days; histone 2AX (H2AX) foci (mouse G3 MB tumor cells; 1 hr treatment at 5 nM): induced histone 2AX (H2AX) foci; cell death by Annexin V staining (mouse G3 MB tumor cells): induced cell death; tolerability [7]: well tolerated; median survival (Myc2 mouse G3 MB): 26 days
16 | 13000 nM | CC[C@H](C)C(=O)O[C@H]1C[C@@H](C)C=C2C=C[C@H](C)[C@H](CC[C@@H]3C[C@@H](O)CC(=O)O3)[C@H]21 [Lovastatin] | 4000 nM | 2100 nM | 
17 |  | CN(Cc1cnc2nc(N)nc(N)c2n1)c1ccc(C(=O)N[C@@H](CCC(=O)O)C(=O)O)cc1 [Methotrexate] | 5.2 nM | 150 nM | 
18 |  | Nc1nc2[nH]cc(CCc3ccc(C(=O)N[C@@H](CCC(=O)O)C(=O)O)cc3)c2c(=O)[nH]1 [Pemetrexed] | 35 nM | 15000 nM | H3K27me3 levels (H3K27me3): no effect; potency and efficacy compared to Myc1 [2]: comparable potency and efficacy; sensitivity compared to Myc1 (SHH MB-derived line): as sensitive to pemetrexed as Myc1; EC50 (Myc1 neurospheres; [8]): 1200 nM; EC50 (Myc1 neurospheres; [9]): 500 nM; EC50 (Myc1 neurospheres; [10]): 180 nM; EC50 [3]: 160 nM; EC50 [4]: 100 nM; EC50 [5]: 290 nM; clearance relative to previously published reports [6]: around 2 fold; increase in median survival (Myc1 mouse G3 MB; one dose of pemetrexed 200 mg/kg at day 3, vs vehicle): 3 days; increase in median survival (Myc1 mouse G3 MB; two doses of pemetrexed 200 mg/kg at days 3 and 10, vs vehicle): 7 days; cell death by Annexin V staining (mouse G3 MB tumor cells): induced cell death; tolerability [7]: well tolerated; median survival (Myc2 mouse G3 MB): 28 days
19 | 5000 nM | O=C(O)C[C@H](O)C[C@H](O)/C=C/c1c(C2CC2)nc2ccccc2c1-c1ccc(F)cc1 [Pitavastatin] | 3500 nM |  | 
20 |  | CCc1nc(N)nc(N)c1-c1ccc(Cl)cc1 [Pyrimethamine] | 4900 nM | 870 nM | 
21 |  | Cc1nc2ccc(CN(C)c3ccc(C(=O)N[C@@H](CCC(=O)O)C(=O)O)s3)cc2c(=O)[nH]1 [Raltitrexed] | 3 nM | 340 nM | 
22 |  | CC(C)c1nc(N(C)S(C)(=O)=O)nc(-c2ccc(F)cc2)c1/C=C/[C@@H](O)C[C@@H](O)CC(=O)O [Rosuvastatin] | 2600 nM |  | 
23 | 9400 nM | CCC(C)(C)C(=O)O[C@H]1C[C@@H](C)C=C2C=C[C@H](C)[C@H](CC[C@@H]3C[C@@H](O)CC(=O)O3)[C@H]21 [Simvastatin] | 3000 nM |  | EC50 (BJ): 5800 nM
24 | 11000 nM | Nc1nc2nc[nH]c2c(=S)[nH]1 [Thioguanine] | 440 nM | 800 nM | 
25 | 90 nM | CC[C@@]1(O)C(=O)OCc2c1cc1n(c2=O)Cc2cc3c(CN(C)C)c(O)ccc3nc2-1 [Topotecan] | 75 nM | 180 nM | 
26 |  | O=c1[nH]c(=O)n([C@H]2C[C@H](O)[C@@H](CO)O2)cc1C(F)(F)F [Trifluridine] | 38 nM | 2.9 nM | 
27 |  | COc1cc(NCc2ccc3nc(N)nc(N)c3c2C)cc(OC)c1OC [Trimetrexate] | 35 nM | 4.7 nM | 
28 |  | CC[C@]1(O)C[C@@H]2CN(CCc3c([nH]c4ccccc34)[C@@](C(=O)OC)(c3cc4c(cc3OC)N(C)[C@H]3[C@@](O)(C(=O)OC)[C@H](OC(C)=O)[C@]5(CC)C=CCN6CC[C@]43[C@@H]65)C2)C1 [Vinblastine] | 12 nM | 15 nM | 
29 |  | CC[C@]1(O)C[C@H]2CN(CCc3c([nH]c4ccccc34)[C@@](C(=O)OC)(c3cc4c(cc3OC)N(C=O)[C@H]3[C@@](O)(C(=O)OC)[C@H](OC(C)=O)[C@]5(CC)C=CCN6CC[C@]43[C@@H]65)C2)C1 [Vincristine] | 9.4 nM | 10 nM | toxicity in mice [7]: intolerable toxicity

Row | Compound | EC50 (HepG2) | EC50 [1] | EC50 (Trp53-null neurospheres) | further results
30 | Cc1c2oc3c(C)ccc(C(=O)N[C@@H]4C(=O)N[C@H](C(C)C)C(=O)N5CCC[C@H]5C(=O)N(C)CC(=O)N(C)[C@@H](C(C)C)C(=O)O[C@@H]4C)c3nc-2c(C(=O)N[C@@H]2C(=O)N[C@H](C(C)C)C(=O)N3CCC[C@H]3C(=O)N(C)CC(=O)N(C)[C@@H](C(C)C)C(=O)O[C@@H]2C)c(N)c1=O [Dactinomycin] (I: T[dV]P[Sar][NMeV] / II: T[dV]P[Sar][NMeV]; ester I:1-I:C, II:1-II:C; linker I:N-II:N via Actinocin(9to1)) | 8.4 nM | 0.9 nM | 2.4 nM | 
31 | COc1cccc2c1C(=O)c1c(O)c3c(c(O)c1C2=O)C[C@@](O)(C(C)=O)C[C@@H]3O[C@H]1C[C@H](N)[C@H](O)[C@H](C)O1 [Daunorubicin] | 1700 nM | 7.5 nM | 36 nM | EC50 (BJ): 100 nM
32 | COC(=O)Nc1nc2ccc(C(=O)c3cccs3)cc2[nH]1 [Nocodazole] | 15 nM | 110 nM | 94 nM | 
33 | COc1cc([C@@H]2c3cc4c(cc3[C@H](O)[C@H]3COC(=O)[C@H]23)OCO4)cc(OC)c1OC [Podofilox] | 3.9 nM | 6.4 nM | 7.4 nM | 
